From patent US11040107B2, “Dosing regimens and related compositions and methods” (Apellis Pharmaceuticals, Inc., priority 2017, dated 2021)
Blank lines part the entries; values can stand above or below the molecule they belong to.

Legend:
[1] = Phase 1 single and multiple ascending dose trial of inhaled CA28; format: in vivo, human; details: for adverse event: one subject
Procedure: In the single ascending dose part of the trial, 16 subjects were enrolled in four cohorts of four subjects each.
Four subjects were enrolled in the first cohort of the multiple ascending dose part of the trial. These subjects were to receive 14 consecutive days of treatment with a 60 mg/day dose of the drug. […] The trial was paused and subsequently resumed, with subjects receiving 30 mg/day. […] The trial was then terminated.

[2] = test system: RBCs from a patient with PNH; assay: Modified Ham's test with flow cytometry for CD59 and C3d; format: cell-based, human
Procedure: A modified Ham's test was performed to assess the ability of compstatin analogs to protect PNH RBCs from complement-mediated lysis. […] Exposure to heat inactivated human serum was used as a control representing no significant complement-mediated lysis as complement is inactivated by heat. Exposure to acidified human serum and magnesium (Mg^2+) in the absence of complement inhibitors (pane labeled Mg^2+) was used as a control representing maximum lysis.
Following incubation, cells were stained with antibodies to CD59 and C3d. CD59 level permitted the classification of the PNH RBCs as Type I, Type II, or Type III. Staining for C3d, a product of C3 activation and cleavage was used as a marker of C3 and C3 activation product deposition (loading). Flow cytometric analysis was performed to assess CD59 and C3d on RBC surfaces and to quantify the percentages of Type I, Type II, and Type III cells present in various samples.

[3] = test system: inflammatory cytokines in the lungs; assay: Ascaris suum challenge model; format: in vivo, cynomolgus monkeys; details: nebulized 20 mg/day or 15 mg/kg/d for 14 days; during treatment and 28 days after cessation
[4] = target: T1, complement component C3 (human) (human, UniProt P01024 23-1663); assay: cell-based or functional assay
[5] = target: T1, complement component C3 (human); assay: cell-based or functional assay; remark: listed apart in the source
[6] = target: T1, complement component C3 (human); assay: cell-based or functional assay; remark: listed apart in the source
[7] = target: T1, complement component C3 (human); assay: cell-based or functional assay; remark: listed apart in the source
[8] = target: T1, complement component C3 (human); assay: cell-based or functional assay; remark: listed apart in the source

Molecule: CC[C@H](C)[C@H](NC(C)=O)C(=O)N[C@H]1CSSC[C@@H](C(=O)N[C@H](C(N)=O)[C@@H](C)O)NC(=O)[C@H](CCCNC(=N)N)NC(=O)[C@H](Cc2cnc[nH]2)NC(=O)[C@H](C)NC(=O)CNC(=O)[C@H](Cc2c[nH]c3ccccc23)NC(=O)[C@H](CC(=O)O)NC(=O)[C@H](CCC(N)=O)NC(=O)[C@H](Cc2cn(C)c3ccccc23)NC(=O)[C@H](C(C)C)NC1=O [CA28]
adverse event ([1]; 30 mg/day inhaled, after 10 days): signs and symptoms consistent with a potential bacterial infection
adverse event ([1]; 60 mg/day inhaled, after nine days): signs and symptoms consistent with a potential bacterial infection
safety and tolerability ([1]; single inhaled dose 20, 60, 150 or 350 mg): well tolerated
protection from complement-mediated lysis ([2]; 100 ug/ml or more): complete protection from complement-mediated lysis
% C3 (Type I) ([2]; 1 micrograms/ml): 1.7%
% C3 (Type III) ([2]; 1 micrograms/ml): 1.2%
% C3 (Type III) ([2]; 4 micrograms/ml): 0.83%
% C3 (Type III) ([2]; 8 micrograms/ml): 0.7%
Type II % ([2]; 8 micrograms/ml): 66%
% C3 (Type III) ([2]; 15 micrograms/ml): 0.98%
Type I % ([2]; 15 micrograms/ml): 15%
% C3 (Type II) ([2]; 25 micrograms/ml): 9.3%
% C3 (Type III) ([2]; 25 micrograms/ml): 0.75%
Type I % ([2]; 25 micrograms/ml): 14.96%
% C3 (Type I) ([2]; 100 micrograms/ml): 0.08%
% C3 (Type II) ([2]; 100 micrograms/ml): 0.92%
% C3 (Type III) ([2]; 100 micrograms/ml): 0.1%
Type III % ([2]; 100 micrograms/ml): 37.96%
C3 loading on PNH red cells ([2]; 100 micrograms/ml compound or higher): virtually no C3 loading
% C3 (Type I) ([2]; 500 micrograms/ml): 0.14%
% C3 (Type II) ([2]; 500 micrograms/ml): 0.63%
% C3 (Type III) ([2]; 500 micrograms/ml): 0.09%
levels of inflammatory cytokines in broncheoalveolar lavage fluid after allergen challenge [3]: had a pharmacological effect

B3: CA28-AEEAc-Lys-(PEG40k) (peptide)
peptide: ICVWQDWGAHRCTK
modifications: N-terminal acetyl; 1-methyl-tryptophan at position 4; disulfide bond Cys2-Cys12; AEEAc spacer between Thr13 and Lys; linear monomethoxy 40 kD PEG (NOF SUNBRIGHT ME-400GS, glutaryl linkage) on the Lys side chain; C-terminal amide
IC50, classical complement inhibition assay (C3b deposition ELISA, human plasma) [4]: 1290 nM
IC50 (read off the curve): % inhibition of classical pathway complement activation (C3b deposition ELISA, human plasma) [6]: ~700 nM

B5: CA28-AEEAc-Lys(mPEG40K-carbonyl) (peptide)
peptide: ICVWQDWGAHRCTK
modifications: N-terminal acetyl; 1-methyl-tryptophan at position 4; disulfide bond Cys2-Cys12; AEEAc spacer between Thr13 and Lys; linear monomethoxy 40 kD PEG (NOF SUNBRIGHT ME-400TS, carbonyl linkage) on the Lys side chain; C-terminal amide
IC50 (read off the curve): % inhibition of classical pathway complement activation (C3b deposition ELISA, human plasma) [6]: ~700 nM

B6: CA28-2TS-BF (peptide)
peptide: ICVWQDWGAHRCTK
modifications: not fully specified; N-terminal acetyl; 1-methyl-tryptophan at position 4; disulfide bond Cys2-Cys12; AEEAc spacer between Thr13 and Lys; Lys side chain coupled by a carbamate to one end of a bifunctional linear 40 kD PEG of the TS type; C-terminal amide
IC50 (read off the curve): % inhibition of alternative pathway complement activation (LPS-coated plate, C3b deposition ELISA, human plasma) [B] [8]: ~400 nM

B7: CA28-AEEAc-Lys(mPEG40K-succinyl) (peptide)
peptide: ICVWQDWGAHRCTK
modifications: N-terminal acetyl; 1-methyl-tryptophan at position 4; disulfide bond Cys2-Cys12; AEEAc spacer between Thr13 and Lys; linear monomethoxy 40 kD PEG (NOF SUNBRIGHT ME-400CS, succinyl linkage) on the Lys side chain; C-terminal amide
IC50 (read off the curve): % inhibition of classical pathway complement activation (C3b deposition ELISA, human plasma) [6]: ~700 nM

B8: CA28-AEEAc-Lys(mPEG40K-hexanoyl) (peptide)
peptide: ICVWQDWGAHRCTK
modifications: N-terminal acetyl; 1-methyl-tryptophan at position 4; disulfide bond Cys2-Cys12; AEEAc spacer between Thr13 and Lys; linear monomethoxy 40 kD PEG (NOF SUNBRIGHT ME-400HS, hexanoyl linkage) on the Lys side chain; C-terminal amide
IC50 (read off the curve): % inhibition of classical pathway complement activation (C3b deposition ELISA, human plasma) [6]: ~700 nM

Next, values leading:

IC50, classical complement inhibition assay (C3b deposition ELISA, human plasma) [4]: 1260 nM
B1: CA28-AEEAc-Lys-(PEG30k) (peptide)
peptide: ICVWQDWGAHRCTK
modifications: not fully specified; N-terminal acetyl; 1-methyl-tryptophan at position 4; disulfide bond Cys2-Cys12; AEEAc (8-amino-3,6-dioxaoctanoyl) spacer between Thr13 and Lys; linear monofunctional 30 kD PEG (NOF SUNBRIGHT ME-300GS) on the Lys side chain; C-terminal amide

Q1 (Type III cells with C3d deposition) % Parent, modified Ham's test, at 50 ug/ml [5]: 0.01%
Q2 (Type I and II cells with C3d deposition) % Parent, modified Ham's test, at 50 ug/ml [5]: 0.01%
Q3 (Type III cells without significant C3d deposition) % Parent, modified Ham's test, at 50 ug/ml [5]: 61.5%
Q4 (Type I and II cells without significant C3d deposition) % Parent, modified Ham's test, at 50 ug/ml [5]: 38.5%
B2: CA28-2GS-BF (peptide)
peptide: ICVWQDWGAHRCTK
modifications: not fully specified; N-terminal acetyl; 1-methyl-tryptophan at position 4; disulfide bond Cys2-Cys12; AEEAc spacer between Thr13 and Lys; Lys side chain coupled to one end of a bifunctional linear 40 kD PEG of the GS type (glutaryl, amide plus ester linkage); C-terminal amide

IC50, classical complement inhibition assay, as a function of CA28 moiety concentration [4]: 1930 nM
IC50 on a molar basis of the compound, classical complement inhibition assay [7]: ~260 nM
B4: (CA28-AEEAc)8-PEG40k (peptide)
peptide: ICVWQDWGAHRCTK
modifications: N-terminal acetyl; 1-methyl-tryptophan at position 4; disulfide bond Cys2-Cys12; AEEAc spacer between Thr13 and Lys; Lys side chain coupled to one arm of an eight-arm 40 kD PEG (NOF SUNBRIGHT HGEO-400GS); C-terminal amide
